{"source": "patent US20220081676A1", "about": "“MICROFLUIDIC DEVICES FOR TATTOO PIGMENT SAFETY” (priority 2019, published 2022)", "key": {"Liver-Chip": {"test_system": "Liver-Chip", "assay": "Assessment of tattoo pigment toxicity on the Liver-Chip", "conditions": "5 microM", "procedure": "Injury to liver function is indicated by […] in albumin Secretion. […] Other functional changes or mechanistic routes may be detectable through additional assays\nPigment with a low concentration of 0.03% of pigment diluent is flowed through the chip (same concentrations both top and bottom channels simultaneously). […] In future applications, we also plan to explore potential toxicity of pigment diluent formulations (without pigments).\nBoth top and bottom channels were treated\nEmbodiments of Liver-Chips include: Co-culture (Hepatocytes+LSECs); Tri-culture (Hepatocytes+LSECs+Kupffer cells); Quad-culture (Hepatocytes+LSECs+Kupffer cells+Stellate cells); Human Liver-Chip; Rat Liver-Chip; Dog Liver-Chip; etc."}, "[1]": {"test_system": "Kidney Proximal Tubule-Chip", "assay": "Assessment of tattoo pigment toxicity on the Kidney Proximal Tubule-Chip", "assay_type": "cell-based, human", "procedure": "Channel: Renal Proximal Tubule Epithelial Cells\nBottom Channel: Renal Microvascular Endothelial Cells\nMorphology: BF Imaging From Effluent: LDH, ROS\nTerminal Endpoints From Lysates: Caspase, ALP\nECM-coating. Sulfo-sanpah (Covachem, #13414), ER1 (0.5 mg/ml) in ER2 50 mM HEPES buffer; Collagen IV (BD Corning, 50 μg/mL in Dulbecco's phosphate-buffered saline (DPBS); and Matrigel (BD Corning, reduced growth factor, 100 ug/ml DPBS). Cells. Top channel. Human Proximal Tubular Epithelial Cells (Lonza, RPTEC #CC-2553); and Bottom channel. Primary Human Glomerular microvascular Endothelial cells (Cell Systems. ACBRI 128), expand to P7 (e.g. passage 7). Media. Renal Epithelial Growth Medium (REGM™ Lonza, CC-3190) for Proximal tubule cells or REGM2 (from PromoCell, Cat #C-26130); and Kidney endothelial cell medium (Cell Systems, 4ZO-500). Chip. High shear chip; under flow shear; and Tall channel closed top-chip. Experimental reagents. Collagen IV coated 6 well plate; and Corning BioCoat Collagen IV multiwall plates, Corning #354428.\nOne brief exemplary timeline is described as: Day −2: Chip coating; Day −1: Seeding endothelial cells; Day 0: Seeding proximal tubule epithelial cells; Day 0-7: Maintain chips; Day 7: Start Experiment (Study), e.g. 72 hours; and Day 10: End 72 hour Experiment (Study). Exemplary readouts include but are not limited to: Phase contrast microscopic images; immunofluorescent images; barrier function (in particular for kidney-chips, etc.); and Troponin I release (in particular for heart-chips, i.e. cardiac-chips).\nOutflow from chips, (e.g. S1—closed top chip; and high shear (HS) chip) was collected for certain readouts. For reference, kidney endothelial media contains 5% FBS while the kidney epithelial media contains 0.5% FBS."}, "Static Skin models": {"test_system": "Static Skin models", "assay_type": "cell-based, human", "text": "Red tattoo pigments known to cause some level of toxicity following sun exposure.\nD12 ALI (D8 post-tattoo) N=4 per condition. Hybrid Transwells.\nRed tattoo pigments known to cause some level of toxicity following sun exposure. […] D12 ALI (D8 post-tattoo) N=4 per condition. Hybrid Transwells.\nSafety Assessment of Red122 Pigment—Phototoxicity Assay (Viability) Red tattoo pigments known to cause some level of toxicity following sun exposure. […] Chlorpromazine (CPZ), known to be induce phototoxicity and photosensitization, was used as a positive control.\nBarrier Function: Permeability of Cascade Blue (3000 MW); Quantification of skin permeability to Cascade Blue by topical deposition of 50 μl of 10 μM Cascade Blue, followed by 1 hour static incubation. Bottom channel medium collected and Papp determined by quantification of Cascade Blue present in the sampled medium using a plate-reader. […] Permeability of Testosterone and Caffeine; Requires mass spectrometer for detection. These values can be correlated to in vivo skin. Topical Compound Test for Toxicity, Corrosivity, Irritancy, Phototoxicity viability assays performed are MTT or Presto Blue. Corrosivity: a material is considered corrosive if cell viability is <50% after 3 min exposure or <15% after 60 min exposure. […]"}, "Static Skin-Chip Model": {"test_system": "Static Skin-Chip Model", "assay": "Toxicity of pigments tattooed on Static Skin-Chip Model, metabolic activity (Presto Blue)", "assay_type": "cell-based, human", "text": "Tattooed on D4 at ALI, N=4 per condition Hybrid Transwells.\nMetabolic Activity (Presto Blue) of Blue15 Pigment. Tattooed on D4 at ALI. N=4 per condition Hybrid Transwells.\nThus, readouts include assessing recovery after damage. Readouts include but are not limited to Invitrogen PrestoBlue™."}, "[2]": {"test_system": "Static Skin models (Hybrid Transwells)", "assay": "Phototoxicity and photosensitization to Red122: cytokines release", "assay_type": "cell-based, human", "conditions": "tattooed with 35% w/v; for inflammatory and sensitization cytokines (IL-1Beta and IL-18) following UVA exposure: UVA on D11 ALI (D7 post-tattoo)"}, "Dog Liver-Chip": {"test_system": "Dog Liver-Chip", "assay": "Effect of Bosentan on albumin secretion, Dog Liver-Chip", "assay_type": "cell-based", "conditions": "in vivo relevant doses", "text": "(§1) Readouts include but are not limited to: albumin secretion, Effect of Bosentan on Albumin Secretion; Inhibition of BSEP Transporter; Bile acid accumulation Cholyl-lysyl-fluorescein (CLF); BSEP substrate etc."}, "Human Liver-Chip": {"test_system": "Human Liver-Chip", "assay": "Effect of Bosentan on albumin secretion, Human Liver-Chip", "assay_type": "cell-based", "conditions": "in vivo relevant doses", "text": "as §1"}, "[3]": {"test_system": "Skin-Chip (microfluidic OT-chip)", "conditions": "human", "description": "Readouts include but are not limited to Invitrogen PrestoBlue™. Invitrogen PrestoBlue™ Cell Viability Reagent, e.g. Fisher Scientific, Catalog number: A1326, is an exemplary metabolic Assay Reagent. When added to cells, the PrestoBlue® reagent is modified by the reducing environment of a viable cell and turns red in color, becoming highly fluorescent. This color change can be detected using fluorescence or absorbance measurements."}, "[4]": {"test_system": "proximal tubular epithelium", "assay": "Gentamicin-induced toxicity on Renal-Kidney Proximal Tubule-Chip", "assay_type": "cell-based, human", "conditions": "10 mM for 48 hours", "procedure": "Gentamicin treatment is used for inducing damage as a positive control compared to controls without Gentamicin.\nReadouts include but are not limited to: Gentamicin-induced toxicity after exposure to 10 mM of gentamicin for 48 hours."}, "Static Skin model": {"test_system": "Static Skin model", "assay_type": "cell-based, human", "procedure": "Tissue robustness evaluated by determining the ET50 value following topical exposure to 1% TritonX-100.\n(§2) In one embodiment, tissue robustness was evelauated determining the ET50 value following topical exposure to a test irritant, 1% TritonX-100. Irritation potential is calculated in terms of the “ET50” value: the time taken, in minutes, for a test compound to reduce the viability of the skin model to 50% compared with negative controls. […] Thus, at least one commercially obtained and tested skin equivalent model became permeable faster than one embodiment of a static skin model described herein.\n(§3) Immunostaining (IF):Biomarkers characteristic of the stratified epidermal layers should include: • Basement membrane markers: collagen IV, Laminin 5 • Stratum basal: Keratin 14 • Stratum spinosum: Keratin 10 • Stratum granulosum: Filaggrin • Stratum corneum: Involucrin, Loricrin Quality control of tissue reproducibility from sample to sample and lot to lot can also be established by comparison of ET50 values to a baseline value. Example provided from MatTek for their baseline ET50 value on EpiDerm200—average 6.82 h. Exposure to 1.0% Triton X-100 topically over 12 h."}, "[5]": {"test_system": "Static Skin model (Hybrid Transwells)", "assay": "Skin irritation: release of associated cytokines after topical Triton X-100, Hybrid Transwells", "assay_type": "cell-based, human", "conditions": "topical exposure", "procedure": "D11 ALI. N=3 per condition Hybrid Transwells.\nMethod 1: ET50 values determined by MTT or Presto Blue assay will define the class of irritancy based on in vivo classification (see table below). Topical exposures will include 3 exposure times of 2 h, 5 h and 18 h to 100 ul or 100 mg of a test material. Positive control include 5% SDS and 1% Triton X-100. Method 2: a material is considered an irritant is viability is <50% after 1 h topical exposure to 30 ul or 25 mg/of test material (OECD TG 439) Method 3: a material is considered an irritant if there is an increase in the following cytokines compared to control by ELISA is indicative of skin irritant—IL-1alpha, IL-8, prostaglandin PGE2. MatTek Irritancy protocol"}, "EpiDerm200 from MatTek [6]": {"test_system": "EpiDerm200 from MatTek", "assay": "ET50 following topical exposure to Triton X-100, EpiDerm200 from MatTek", "assay_type": "cell-based", "conditions": "skin equivalent model on the market", "procedure": "as §2, §3"}, "EpiDerm200 from MatTek [7]": {"test_system": "EpiDerm200 from MatTek", "conditions": "cited from earlier work"}, "[8]": {"test_system": "epidermal cells in a Skin-Chip (microfluidic OT-chip)", "text": "In some embodiments, a live-dead staining is used for determining cell viability."}}, "note": "Where two headings read alike, the source gives them in different places."}
{"compound": "CN[C@@H]1C[C@H]2O[C@@](C)([C@@H]1OC)n1c3ccccc3c3c4c(c5c6ccccc6n2c5c31)C(=O)NC4", "note": "[staurosporine]", "values": [{"measurement": "ATP synthesis, effluent from the bottom channels", "setting": "Liver-Chip", "result": "loss of ATP synthesis"}, {"measurement": "albumin secreted over time, effluent from the top channel", "setting": "Liver-Chip", "result": "loss of secreted albumin"}, {"measurement": "hepatocyte cell morphology", "setting": "Liver-Chip; after 4 days of treatment", "result": "hepatocyte damage"}]}
{"compound": "Cc1ccc2[nH]c3cc4c(=O)c5cc(C)ccc5[nH]c4cc3c(=O)c2c1", "note": "[Red122]", "values": [{"measurement": "caspase activity", "setting": "[1]; between the different doses", "result": "No significant differences were noted in caspase activity"}, {"measurement": "kidney toxicity via LDH release", "setting": "[1]; between the different doses", "result": "No significant changes in LDH"}, {"measurement": "ROS activity", "setting": "[1]; between the different groups", "result": "No significant differences were observed in the ROS activity"}, {"measurement": "ALP activity (kidney function)", "setting": "[1]; different doses", "result": "No significant differences were observed in the ALP activity"}, {"measurement": "viability from healthy after UVA (phototoxicity)", "setting": "Static Skin models", "result": 85, "unit": "%"}, {"measurement": "viability (metabolic activity, Presto Blue)", "setting": "Static Skin-Chip Model; 24 h post-tattoo, tattooed on D4 at ALI, Hybrid Transwells", "result": "decrease in viability with increasing Red122 concentration"}, {"measurement": "skin recovery (viability)", "setting": "Static Skin-Chip Model; over 8 days post-tattoo", "result": "Skin recovery observed"}, {"measurement": "inflammatory and sensitization cytokines (IL-1Beta and IL-18) following UVA exposure", "setting": "[2]", "result": "both cytotoxicity and sensitization following UVA exposure"}, {"measurement": "inflammatory and sensitization cytokines (IL-1Beta and IL-18) following UVA exposure", "setting": "[2]; listed as Red", "result": "increase in both cytokines"}, {"measurement": "effect as a skin sensitizer (cytokine release)", "setting": "[2]; no UVA", "result": "no effect as a skin sensitizer"}, {"measurement": "secretion of inflammatory cytokine", "setting": "[2]; no UVA", "result": "increased secretion of inflammatory cytokine"}]}
{"compound": "COc1ccccc1Oc1c(NS(=O)(=O)c2ccc(C(C)(C)C)cc2)nc(-c2ncccn2)nc1OCCO", "note": "[Bosentan]", "values": [{"measurement": "albumin secretion, dose response", "setting": "Dog Liver-Chip", "result": "dose response effects"}, {"measurement": "albumin secretion, dose response", "setting": "Human Liver-Chip", "result": "dose response effects"}]}
{"compound": "O=C(O)CO", "note": "[glycolic acid]", "values": [{"measurement": "metabolic activity (PrestoBlue) as percentage of untreated control", "setting": "[3]", "result": "statistically significant reduction in activity compared to the activity of citric acid (0.6M) and lactic acid"}]}
{"compound": "gentamicin", "values": [{"measurement": "LDH in medium effluent", "setting": "[4]", "result": "significant increase"}, {"measurement": "NAG in medium effluent", "setting": "[4]", "result": "significant increase"}, {"measurement": "ROS in medium effluent", "setting": "[4]", "result": "significant increase"}, {"measurement": "active caspase-3 in cells lysates", "setting": "[4]", "result": "increase"}, {"measurement": "microscopic analysis of the proximal tubular epithelium", "setting": "[4]", "result": "structural damage"}]}
{"compound": "Triton X-100", "values": [{"measurement": "ET50", "setting": "Static Skin model", "result": 11, "unit": "h"}, {"measurement": "expression of inflammatory cytokine IL-1B", "setting": "[5]", "result": "increase in expression"}, {"measurement": "IL-18 (expressed following skin sensitization)", "setting": "[5]; D11 ALI", "result": "no significant increase"}, {"measurement": "expression of inflammatory cytokine IL-1alpha", "setting": "[5]; D11 ALI", "result": "increase in expression"}, {"measurement": "ET50", "setting": "EpiDerm200 from MatTek [6]", "result": 7, "unit": "h"}, {"measurement": "baseline ET50 value, average", "setting": "EpiDerm200 from MatTek [7]; EpiDerm200, 1.0% Triton X-100 topically, provided from MatTek", "result": 6.82, "unit": "h"}, {"measurement": "EPI-200 Triton ET-50", "setting": "EpiDerm200 from MatTek [7]; Year 1995", "result": 6.65, "unit": "h"}, {"measurement": "EPI-200 Triton ET-50", "setting": "EpiDerm200 from MatTek [7]; Year 1996", "result": 6.74, "unit": "h"}, {"measurement": "EPI-200 Triton ET-50", "setting": "EpiDerm200 from MatTek [7]; Year 1997", "result": 6.78, "unit": "h"}, {"measurement": "EPI-200 Triton ET-50", "setting": "EpiDerm200 from MatTek [7]; Year 1998", "result": 7.24, "unit": "h"}, {"measurement": "EPI-200 Triton ET-50", "setting": "EpiDerm200 from MatTek [7]; Year 1999", "result": 6.75, "unit": "h"}, {"measurement": "EPI-200 Triton ET-50", "setting": "EpiDerm200 from MatTek [7]; Year 2000 (through September 2000)", "result": 6.76, "unit": "h"}]}
{"compound": "CC(O)C(=O)O", "note": "(centres unmarked) [lactic acid]", "values": [{"measurement": "cell death by DRAQ7 staining, dead cells/mm^2", "setting": "[8]", "result": "statistically significant death of skin cells"}]}
